Source: patent US8614290B2, “Cancer imaging and treatment” (Technische Universitat Munchen, priority 2007, dated 2013)
pIC50: −log10 of the molar value. “And” between values parts separate entries of the source, which are not always exact repeats. Identical values can stand only once. Values belong to the compound of their own block, whether it stands above or below them. Peptide text beside a SMILES is read from it.

Key:
human CXCR4 [1] = target: T1, human CXCR4 (Homo sapiens, UniProt P61073); experiment: Receptor functionality: FACS staining of surface CXCR4 after pre-incubation with SDF-1α; format: cell-based; design: expressed in transfected cells; host or cells: murine CMS5 fibrosarcoma cells, retroviral vector pBulletCXCR4-IRES-eGFP
T1 sequence (P61073 whole entry): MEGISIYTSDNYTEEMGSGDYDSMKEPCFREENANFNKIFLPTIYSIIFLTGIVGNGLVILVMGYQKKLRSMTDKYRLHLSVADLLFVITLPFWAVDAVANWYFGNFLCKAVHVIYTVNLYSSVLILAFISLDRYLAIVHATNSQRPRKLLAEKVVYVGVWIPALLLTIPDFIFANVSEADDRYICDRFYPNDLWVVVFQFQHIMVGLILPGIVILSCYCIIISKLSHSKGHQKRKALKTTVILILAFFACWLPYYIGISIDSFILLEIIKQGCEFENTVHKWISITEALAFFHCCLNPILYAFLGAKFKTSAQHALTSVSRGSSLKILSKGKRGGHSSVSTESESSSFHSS
From the text: CXCR-4 staining was plotted against EGFP fluorescence (FL1).

human CXCR4 [2] = target: T1, human CXCR4; experiment: Receptor internalization: tracer release after acidic buffer wash; format: cell-based; design: Jurkat cells that endogenously express the CXCR4 receptor; endogenous in cells; host or cells: Jurkat cells; conditions: after two short washing steps with acidic buffer (pH5.0)
From the text: Thereafter the tracer was mostly releasable from the receptor (>80%).

CMS5/CXCR4 tumours = experiment: Biodistribution of 125I-CPCR4 in CMS5 and CMS5/CXCR4 tumour bearing nude mice; format: in vivo; conditions: for accumulation in CMS5/CXCR4 tumours / accumulation in parental CMS5 (CXCR4 negative control) tumours: i.v.
Description: For animal experiments parental CMS5 cells and transduced CMS5/CXCR4 cells were injected subcutaneously in female Swiss nu/nu mice (Charles River, France). Therefore for each mouse 1.5×10^6 CMS5 cells and 2×10^6 CMS5/CXCR4 cells were resuspended in 75 μl PBS, respectively and mixed with the same volume Matrigel-Matrix HC (BD Biosciences, Heidelberg, Germany) according to the manufacturer's protocol. Subsequently cell suspension was inoculated at each shoulder, respectively. After 14-16 days of tumour growth mice were used for imaging and biodistribution purposes. All animal experiments were approved by the local authorities and are in compliance with the institutions guidelines.
The animals were sacrificed and dissected 30, 60 and 120 min after tracer injection. Organs of interest were removed and the radioactivity was measured in weighted tissue samples using the 1480 Wizard3 gamma counter from Wallac (Turku, Finland). Results are expressed as percent injected dose per gram tissue weight (% ID/g). Each value represents the mean of four to six animals.

human CXCR4 [3] = target: T1, human CXCR4; experiment: Radioligand (saturation) binding of 125I-CPCR4 on Jurkat and CMS5/CXCR4 cells; design: Jurkat cells that endogenously express the CXCR4 receptor; endogenous in cells; host or cells: Jurkat cells
Description: For receptor binding assays cells were resuspended in PBS/0.2% BSA. A total of 200 μl of the suspension containing 400,000 Jurkat cells were incubated with 25 μl of the tracer solution (containing 3.1 kBq, approx. 0.1 nM) and 25 μl of the diluent or the competitor at different concentrations. […] Nonspecific binding was determined in the presence of 1 μM cold cyclo(D-Tyr^1[^127I]-Arg^2-Arg^3-Nal^4-Gly^5). After shaking for 2 h at room temperature, the incubation was terminated by centrifugation at 1300 rpm for 5 min. Cell pellets were washed once with cold PBS followed by a second centrifugation step. Cell bound radioactivity was determined by using a gamma counter. Experiments were repeated 2-3 times in triplicates. IC50 values of the compounds were calculated by nonlinear regression using GraphPad Prism (GraphPad Prism 4.0 Software, Inc., San Diego, Calif., USA). Each data point is the average of three determinations.
Whereas for Jurkat cells the Bmax value was more dependent on origin and varies stronger with culture conditions, the number of binding sites (Bmax) on CMS5/CXCR4 cells was constant and better reproducible (23±6 fmol receptor protein).

human CXCR4 [4] = target: T1, human CXCR4; experiment: Competitive receptor binding assay on Jurkat cells with 125I-CPCR4 as tracer; design: Jurkat cells that endogenously express the CXCR4 receptor; endogenous in cells; host or cells: Jurkat cells; conditions: Table 5, D-Orn derivatives, His, Phe; read-out: IC50
Description: For receptor binding assays cells were resuspended in PBS/0.2% BSA. A total of 200 μl of the suspension containing 400,000 Jurkat cells were incubated with 25 μl of the tracer solution (containing 3.1 kBq, approx. 0.1 nM) and 25 μl of the diluent or the competitor at different concentrations. […] After shaking for 2 h at room temperature, the incubation was terminated by centrifugation at 1300 rpm for 5 min. Cell pellets were washed once with cold PBS followed by a second centrifugation step. Cell bound radioactivity was determined by using a gamma counter. Experiments were repeated 2-3 times in triplicates. IC50 values of the compounds were calculated by nonlinear regression using GraphPad Prism (GraphPad Prism 4.0 Software, Inc., San Diego, Calif., USA). Each data point is the average of three determinations.

[5] = 60 min (1 h) post injection, listed as radiolabeled CPCR4

mean fluorescence intensity, CMS5/CXCR4 cells (human CXCR4 [1]; SDF-1α treated, mock treated 209.0): 80.5
CMS5/CXCR4 cells stained positive for CXCR4 (human CXCR4 [1]; after pre-incubation with human SDF-1α 100 nM, 1 hr 37° C., control-treated […]): 54.7%
Compound: SDF-1α

Compound: cyclo(D-Tyr^1[^125I]-Arg^2-Arg^3-Nal^4-Gly^5) [^125I-CPCR4]
tracer releasable from the receptor (human CXCR4 [2]): > 80%
accumulation in intestine (CMS5/CXCR4 tumours; 30 min post injection): 16.0 (±4.7) % ID/g
accumulation in liver (CMS5/CXCR4 tumours; 30 min post injection): 27.7 (±4.9) % ID/g
accumulation in CMS5/CXCR4 tumours (CMS5/CXCR4 tumours; 30 min post injection): 4.7 (±1.3) % ID/g
accumulation in kidneys (CMS5/CXCR4 tumours; 60 min (1 h) post injection): 12.2 (±2.3) % ID/g
accumulation in CMS5/CXCR4 tumours (CMS5/CXCR4 tumours; 60 min (1 h) post injection): 5.5 (±1.5) % ID/g and 5.5 % ID/g
accumulation in parental CMS5 (CXCR4 negative control) tumours (CMS5/CXCR4 tumours; 60 min (1 h) post injection): 0.6 (±0.2) % ID/g
accumulation in CMS5/CXCR4 tumours (CMS5/CXCR4 tumours; [5]): 5.5±1.5 % ID/g
accumulation in parental CMS5 (CXCR4 negative control) tumours (CMS5/CXCR4 tumours; [5]): 0.6±0.2 % ID/g
accumulation in kidneys (CMS5/CXCR4 tumours; [5]): 12.2±2.3 % ID/g
tracer uptake in intestine (CMS5/CXCR4 tumours; 1 h post injection): 17.2±2.9 % ID/g
tracer uptake in liver (CMS5/CXCR4 tumours; 1 h post injection): 19.5±2.8 % ID/g
background accumulation (CMS5/CXCR4 tumours; 1 h post injection, other organs): < 1.0 % ID/g
accumulation in intestine (CMS5/CXCR4 tumours; 120 min post injection): 19.2 (±4.5) % ID/g
accumulation in kidneys (CMS5/CXCR4 tumours; 120 min post injection): 8.2 (±1.1) % ID/g
accumulation in liver (CMS5/CXCR4 tumours; 120 min post injection): 15.0 (±1.8) % ID/g
accumulation in CMS5/CXCR4 tumours (CMS5/CXCR4 tumours; 120 min post injection): 3.8 (±1.4) % ID/g
increased accumulation in CXCR4+ tumors compared to control tumors (CMS5/CXCR4 tumours; preliminary animal studies): around 10 times
specific binding (human CXCR4 [3]): > 90%

Compound: N=C(N)NCCC[C@@H]1NC(=O)[C@H](Cc2c[nH]cn2)NC(=O)[C@@H](Cc2ccc(O)cc2)NC(=O)CNC(=O)[C@H](Cc2ccc3ccccc3c2)NC1=O [cyc[D-Tyr-His-Arg-Nal-Gly]] (HELM PEPTIDE1{[O=C([C@H](Cc1ccc2ccccc2c1)N[*:1])[*:2]].G.[dY].H.R}$PEPTIDE1,PEPTIDE1,1:R1-5:R2$$$V2.0)
pIC50 (human CXCR4 [4]): 7.52
